Test results taken from patent US8129406B2, “Nonpeptide inhibitors of matrix metalloproteinases” (Southern Research Institute, priority 2004, dated 2012).

Legend:
MMP-3 = target: T1, MMP-3 (Homo sapiens, UniProt P08254); assay: Enzyme inhibition assay, fluorometric substrate degradation, MMP-3; format: biochemical; settings: Minienzyme used; read-out: Inhibition Potencies, IC50, MMP-3
T1 construct: purchased Chemicon
Protocol: (§1) Human rMMP-2 and -9 were purified in active forms, and purified MMP-1, -3 and -13 were obtained from commercial sources (Chemicon; Temecula, Calif.) in zymogen form and were activated by 1 mM APMA or PCMB treatment (2 hrs at 37° C.). For kinetic studies, a standard fluorimetric assay based on hydrolysis of fluorogenic synthetic substrate (1 μM of McaPLGLDpaAR) was used. For each assay, target MMP (1 μM) and increasing concentrations of test compound were incubated at 25° C. for 30-60 min and the rate of substrate hydrolysis was measured by Perkin-Elmer fluorometer at an excitation 328 nm and an emission 393 nm settings. Both concentration and time-dependent cleavage were monitored. Controls included trypsin (non-specific cleavage) and bacterial collagenase (total cleavage) and other zinc-protease (ACE, endopeptidase). IC50 values (the concentration at which 50% enzyme activity is inhibited) were determined by plots of % activity versus negative log of agent concentration. The IC50 values were converted to Ki values using the equation, Ki=IC50/(1+S/Km). The Km values (μM) were calculated from the […] values of 3-5 separate experiments. Inhibition kinetics of various MMPs were also determined using substrate-degradation ELISA kits from Chemicon (Temecula, Calif.). See C. Knight, et al., FEBS Lett., 1992, 296, 263-266; L. Windsor, et al., Biochem. Biophys. Acta […], 1334, 261-272, which are incorporated by reference herein for their teachings of enzyme inhibition assays.
MMP inhibitor selectivity determinations: Both quantitative labeled-substrate and FITC-biopeptide (matrix-specific) assays were used to examine the selective inhibition of MMP activities. Substrate specificity for MMP-1, -2, and -9 was assessed by degradation of labeled-collagen I and IV. Typically, MMP-dependent biomatrix degradation was monitored in the presence and absence of candidate compounds (0.5-500 μm) after 60-90 min incubations. Inhibitory potency and selectivity was also analyzed using a gelatin or collagen zymography followed by densitometric analysis. […]

Endopeptidase = assay: Enzyme inhibition assay, endopeptidase (other zinc-protease control); format: biochemical; settings: for IC50: read-out: Inhibition Potencies, IC50, Endopeptidase
Protocol: as §1

MMP-2 = target: T2, MMP-2 (Homo sapiens, UniProt P08253); assay: Enzyme inhibition assay, fluorometric substrate degradation, MMP-2; format: biochemical; settings: purified human rMMP-2, fluorogenic substrate; read-out: Inhibition Potencies, IC50, MMP-2
T2 construct: Human rMMP-2 and -9 were purified in active forms; made in house
T2 sequence (P08253 110-660): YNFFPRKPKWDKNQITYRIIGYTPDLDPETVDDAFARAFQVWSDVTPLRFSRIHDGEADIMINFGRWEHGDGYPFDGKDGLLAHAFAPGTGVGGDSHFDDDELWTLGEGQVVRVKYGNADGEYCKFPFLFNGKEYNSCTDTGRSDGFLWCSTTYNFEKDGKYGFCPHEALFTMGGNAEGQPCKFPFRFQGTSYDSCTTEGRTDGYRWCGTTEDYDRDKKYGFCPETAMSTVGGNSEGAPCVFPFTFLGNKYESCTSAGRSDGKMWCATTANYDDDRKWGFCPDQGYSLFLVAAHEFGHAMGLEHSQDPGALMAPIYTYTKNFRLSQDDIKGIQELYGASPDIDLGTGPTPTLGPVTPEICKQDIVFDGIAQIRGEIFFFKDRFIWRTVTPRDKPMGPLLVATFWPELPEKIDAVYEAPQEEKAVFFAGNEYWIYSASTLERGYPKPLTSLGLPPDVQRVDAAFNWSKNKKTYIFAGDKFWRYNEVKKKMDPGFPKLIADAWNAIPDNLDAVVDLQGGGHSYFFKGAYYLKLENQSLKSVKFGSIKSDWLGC
Protocol: (§2) For kinetic studies, a standard fluorimetric assay based on hydrolysis of fluorogenic synthetic substrate (1 μM of McaPLGLDpaAR) was used. […] Both concentration and time-dependent cleavage were monitored. Controls included trypsin (non-specific cleavage) and bacterial collagenase (total cleavage) and other zinc-protease (ACE, endopeptidase). […] The IC50 values were converted to Ki values using the equation, Ki=IC50/(1+S/Km). […] Inhibition kinetics of various MMPs were also determined using substrate-degradation ELISA kits from Chemicon (Temecula, Calif.). See C.
(§3) Substrate specificity for MMP-1, -2, and -9 was assessed by degradation of labeled-collagen I and IV. […] Inhibitory potency and selectivity was also analyzed using a gelatin or collagen zymography followed by densitometric analysis. Labeled collagen I or IV degradation assay (zymography) was used for M-1, -2 and -9 activities and their inhibition. Bacterial collagenase and EDTA (10 mM) was included as positive and negative controls. In situ zymography film technique was also used for measurement of MMP-2 and MMP-9 (gelatinolytic) activities and their inhibition by drug treatment in target cells and tissue samples.

MMP-9 = target: T3, MMP-9 (Homo sapiens, UniProt P14780); assay: Enzyme inhibition assay, fluorometric substrate degradation, MMP-9; format: biochemical; settings: purified human rMMP-9, fluorogenic substrate; read-out: Inhibition Potencies, IC50, MMP-9
T3 construct: Human rMMP-2 and -9 were purified in active forms; made in house
Protocol: as §2, §3

HT-1080R [1] = assay: Amgel human tumor cell invasion bioassay, HT-1080R; format: cell-based; settings: 72 hours incubation at 50-100 μM
Protocol: (§4) Human tumor cell invasion bioassay: Amgel-coated filters (8 μm) were used as tissue biomatrix barriers placed between Lucite chambers. Labeled cells (50,000) were seeded onto reconstituted-Amgel filters (75 μg) and the lower chambers were filled with media containing 5% dialyzed serum. Test compounds (0.5-100 μM) were added and incubated for 72 hours. Contents from the lower chamber were collected to resolve cell-bound and free radioactivity. See G. Siegal, et al., Cancer Lett. 1993, 69, 123-132; L. Goodly, et al., Tumor Biology 1994, 15, 326-336; M. Ikeda, et al., Clin. Cancer. Res. 2000, 6, 3290-3296; R. Singh, et al., In Vitro Cell Develop. Biol., 2002, 38, 11.
(§5) Evaluation of the compounds 1c and 2c in Amgel human tumor invasion and angiogenesis models (72 hours incubation at 50-100 μM) was performed using two human HT-1080 cancer cell sublines (HT-1080-B and HT-1080-R). The results of these assays with compound 2c are shown in Table 2 and FIG. 1 (data for compound 1 c not shown).

HT-1080B [2] = assay: Amgel human tumor cell invasion bioassay, HT-1080B; format: cell-based; settings: 72 hours incubation at 50-100 μM
Protocol: as §4, §5

HF [3] = assay: Amgel human tumor cell invasion bioassay, HF; format: cell-based; settings: 72 hours incubation at 50-100 μM
HT-1080R [4] = assay: Amgel human tumor angiogenesis bioassay, HT-1080R; format: cell-based; settings: 72 hours incubation at 50-100 μM
Protocol: (§6) Human tumor angiogenesis bioassay: Angiogenesis was induced by coculture of human endothelial cells (HUVECs) with tumor cells or defined angiogenic factor (FGF). Tumor cells media (from 24-hour serum-free cultures) were used to induce a biological angiogenic response using human glioma cell lines producing different concentrations of VEGF or by using purified factors such as 20 μM FGF. Endothelial cells were seeded onto Amgel-coated filters and induced with a angiogenic media+/−candidate MMP inhibitors. Varying concentrations of test compounds (0.5-500 μM) and incubation times (1-7 days) were applied, and endothelial cell differentiation (sprouting and tubule-like capillary formation) were examined by light microscopy and a computerized digital system.
as §5

HT-1080B [5] = assay: Amgel human tumor angiogenesis bioassay, HT-1080B; format: cell-based; settings: 72 hours incubation at 50-100 μM
Protocol: as §6, §5

HF [6] = assay: Amgel human tumor angiogenesis bioassay, HF; format: cell-based; settings: 72 hours incubation at 50-100 μM
Protocol: as §6, §5

[7] = tested on: nontumorigenic human fibroblasts cells (HF); assay: Functional evaluation in Amgel models, nontumorigenic fibroblasts; format: cell-based
[8] = Cell proliferation and cell viability at the tested concentrations; format: cell-based; settings: at the tested concentrations (data not shown)

T1 sequence (P08254 100-477, species assumed): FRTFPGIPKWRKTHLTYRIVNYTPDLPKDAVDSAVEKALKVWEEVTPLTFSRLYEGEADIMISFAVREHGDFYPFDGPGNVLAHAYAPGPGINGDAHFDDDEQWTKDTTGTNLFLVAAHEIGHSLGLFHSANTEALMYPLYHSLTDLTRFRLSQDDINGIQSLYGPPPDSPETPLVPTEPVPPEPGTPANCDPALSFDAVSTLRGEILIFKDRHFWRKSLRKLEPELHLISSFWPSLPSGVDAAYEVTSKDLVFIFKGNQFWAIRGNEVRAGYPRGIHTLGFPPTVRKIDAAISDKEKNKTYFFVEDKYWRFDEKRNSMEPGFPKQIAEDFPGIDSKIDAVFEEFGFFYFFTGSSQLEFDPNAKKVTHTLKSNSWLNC
T3 sequence (P14780 107-707 limits assumed): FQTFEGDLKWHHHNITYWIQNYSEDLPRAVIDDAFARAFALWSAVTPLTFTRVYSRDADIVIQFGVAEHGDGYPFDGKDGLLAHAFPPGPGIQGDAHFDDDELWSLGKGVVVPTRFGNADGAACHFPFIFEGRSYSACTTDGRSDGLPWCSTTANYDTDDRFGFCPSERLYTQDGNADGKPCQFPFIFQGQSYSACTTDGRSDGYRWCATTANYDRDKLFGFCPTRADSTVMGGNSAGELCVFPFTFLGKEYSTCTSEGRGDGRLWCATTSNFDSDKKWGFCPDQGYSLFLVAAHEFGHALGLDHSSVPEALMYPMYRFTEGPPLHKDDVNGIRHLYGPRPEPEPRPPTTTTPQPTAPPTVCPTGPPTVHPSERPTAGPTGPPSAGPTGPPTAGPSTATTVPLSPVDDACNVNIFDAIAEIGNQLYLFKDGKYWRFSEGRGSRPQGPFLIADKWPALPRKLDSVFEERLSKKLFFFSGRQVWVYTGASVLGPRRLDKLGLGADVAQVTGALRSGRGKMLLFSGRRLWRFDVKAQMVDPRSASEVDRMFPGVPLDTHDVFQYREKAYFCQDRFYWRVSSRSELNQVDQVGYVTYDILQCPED

Compound | IC50 (MMP-3) [nM] | Inhibition Potencies, IC50, Endopeptidase (Endopeptidase) | melting point [°C] | IC50 (MMP-2) [nM] | IC50 (MMP-9) [nM] | IC50 (Endopeptidase) [nM] | % Inhibition, Tumor invasion (HT-1080R [1]) [%] | % Inhibition, Tumor invasion (HT-1080B [2]) [%] | % Inhibition, Tumor invasion (HF [3]) | % Inhibition, Tumor angiogenesis (HT-1080R [4]) [%] | % Inhibition, Tumor angiogenesis (HT-1080B [5]) [%] | % Inhibition, Tumor angiogenesis (HF [6]) | effect on nontumorigenic human fibroblasts cells (HF) [7] | effect on cell proliferation [8] | effect on cell viability [8]
CNC(=O)[C@H](Cc1c[nH]c2ccccc12)NC(=O)[C@@H](CC(=O)NO)CC(C)C [GM-6001, reference compound] | 80 | not detectable | – | – | – | – | – | – | – | – | – | – | – | – | –
O=C(NO)[C@@H]1CCCC[C@H]1NS(=O)(=O)c1ccc(Oc2ccccc2)cc1 (relative stereo) [compound 2d, (trans)-N-Hydroxy-2-[(4-Phenoxybenzenesulfonyl)amino]cyclohexane-carboxamide] | – | – | 182 to 184 | – | – | – | – | – | – | – | – | – | – | – | –
O=C(NO)[C@@H]1CCCC[C@H]1NS(=O)(=O)c1ccc(-c2ccccc2)cc1 (racemic) [compound 2c, (trans)-N-Hydroxy-2-[[(4-Biphenyl)sulfonyl]amino]cyclohexanecarbox-amide] | > 3000 | – | 212 to 214 | 125 | 145 | > 20000 | 60 ± 5 | 50 ± 8 | No effect | 40 ± 6 | 45 ± 4 | No effect | neither compound 1c nor compound 2c had any effect | no effect | no effect
O=C(NO)[C@@H]1CCCC[C@@H]1NS(=O)(=O)c1ccc(-c2ccccc2)cc1 (racemic) [compound 1c, (cis)-N-Hydroxy-2-[[(4-Biphenyl)sulfonyl]amino]cyclohexanecarboxamide] | > 3000 | – | 74 to 76 | 150 | 175 | > 20000 | – | – | – | – | – | – | neither compound 1c nor compound 2c had any effect | no effect | no effect
